Data on four compounds can be found in patent US20260109721A1, “IONIZABLE CATIONIC LIPIDS INCORPORATING SILICON: SYNTHESIS AND LNP FORMULATION” (priority 2023, published 2026).

One may read the IC50 as the concentration that inhibits the measured activity by half.

Some results are limits rather than exact numbers.

For this series, the system named is HepG2 cell line. Nature of the series: In vitro toxicity study on HepG2 cell line (resazurin, viability and IC50). The format is cell-based, human. Conditions: resazurin; for Viability (%) at different lipid concentrations, mean: HepG2 cells, 48 h post-treatment, relative to ethanol vehicle controls; for IC50: Homo sapiens, lipid toxicity, HepG2, 48 h post-treatment, 6.25-800 μM, read-out: IC50 value, μM (on HepG2 cell). As for the experimental part: The synthesized lipids were tested in term of in vitro transfection efficacy and toxicity on HeLa cells. In order to perform the mentioned biological tests, appropriate LNPs had to be formulated from the synthesized lipids. The formulation technique was different in Method A and B. The particle size, polydispersity index (PDI) and zeta potential of resulting LNPs were determined by means of Dynamic Light Scattering technique (DLS). Prior to biological testing the encapsulation efficiency (EE) of the loaded LNPs was determined by using RiboGreen RNA assay. In case of Method A Luc mRNA while in case of Method B GFP mRNA was transfected into the cells. In parallel with the transfection experiments, toxicity of the investigated LNPs was determined, in case of Method A resazurin assay while in case of Method B MTT assay was used. Additionally, the toxicity of the lipids was investigated on HepG2 cells and IC50 values were determined.
HepG2 cell line (human hepatocellular carcinoma) were maintained in DMEM medium supplemented with 10% FBS. Cell toxicity measurements were carried out in 384-well microtiter plates with 1000 cells seeded in each well. Test measurements were carried out in triplicate, and control measurements in quadruplicate. After an overnight incubation, the cells were treated with an increasing concentration of the test compounds (6.25, 12.5, 25, 50, 100, 200, 400, 800 μM). […] 48 h post-treatment, following visual inspection under an inverted microscope, cell viability was measured by resazurin assay. Viability of treated cells was calculated relative to that of ethanol vehicle controls. Concentration response curves (CRCs) were obtained and corresponding IC50 values were calculated where applicable and are shown in Table 9.
Resazurin reagent (Sigma-Aldrich) was dissolved in PBS (pH 7.4) at 0.15 mg/ml concentration, 0.22 μm filtered and aliquoted at −20° C., 10 μl resazurin stock solution was added to wells. After 5 hours incubation at 37° C. under 5% CO2 fluorescence (530 nm excitation/580 nm emission) was recorded on a multimode microplate reader.

Take `CCCCC/C=C\C/C=C\CCCCCCCCOC(CCCCCCC/C=C\C/C=C\CCCCC)O[Si](C)(C)OCCCCCCN(CCCO)CCCO` (stereo not shown) [Example 61, (24Z,27Z)-14-((8Z,11Z)-heptadeca-8,11-dien-1-yl)-4-(3-hydroxypropyl)-12,12-dimethyl-11,13,15-trioxa-4-aza-12-silatritriaconta-24,27-dien-1-ol]: the IC50 was 102 µM. For the same compound, the “Viability (%) at different lipid concentrations, mean” value (6.25 μM lipid) worked out at 100.6%. The “Viability (%) at different lipid concentrations, mean” value (12.5 μM lipid) was 110.1%. The “Viability (%) at different lipid concentrations, mean” value (25 μM lipid) came to 116.5%. Besides, for the setting “50 μM lipid”, the “Viability (%) at different lipid concentrations, mean” value worked out at 106.3%. Further, where the note is “100 μM lipid”, the “Viability (%) at different lipid concentrations, mean” value amounted to 54.4%. The “Viability (%) at different lipid concentrations, mean” value (200 μM lipid) was 14.9%. The “Viability (%) at different lipid concentrations, mean” value (400 μM lipid) is −0.5%. Under “800 μM lipid”, the “Viability (%) at different lipid concentrations, mean” value is −1.4%.

`CCCCC/C=C\C/C=C\CCCCCCCCOC(CCCCCCC/C=C\C/C=C\CCCCC)O[Si](C)(C)OCCCCCCN1CCCC1CO` (stereo not shown) [Example 63, (1-((20Z,23Z)-10-((8Z,11Z)-heptadeca-8,11-dien-1-yl)-8,8-dimethyl-7,9,11-trioxa-8-silanonacosa-20,23-dien-1-yl)pyrrolidin-2-yl)methanol]: the IC50 is greater than 800 µM. Under “6.25 μM lipid”, the “Viability (%) at different lipid concentrations, mean” value came out at 99.3%. The “Viability (%) at different lipid concentrations, mean” value (12.5 μM lipid) was 96.4%. Moreover, the “Viability (%) at different lipid concentrations, mean” value (25 μM lipid) came out at 96.6%. Besides, the “Viability (%) at different lipid concentrations, mean” value (50 μM lipid) is 98.3%. The “Viability (%) at different lipid concentrations, mean” value (100 μM lipid) was 94.8%. Further, the “Viability (%) at different lipid concentrations, mean” value (200 μM lipid) is recorded as 91.6%. Besides, for the setting “400 μM lipid”, the “Viability (%) at different lipid concentrations, mean” value turned out to be 85.3%. Also, for the setting “800 μM lipid”, the “Viability (%) at different lipid concentrations, mean” value amounted to 74.5%.

Take `CCCCC/C=C\C/C=C\CCCCCCCCOC(CCCCCCC/C=C\C/C=C\CCCCC)O[Si](C)(C)OCCCCCCN1CCC(CO)CC1` (stereo not shown) [Example 65, (1-((20Z,23Z)-10-((8Z,11Z)-heptadeca-8,11-dien-1-yl)-8,8-dimethyl-7,9,11-trioxa-8-silanonacosa-20,23-dien-1-yl)piperidin-4-yl)methanol]: the IC50 was found to be 742 µM.

As for `CCCCCCCCO[Si](C)(C)O[Si](C)(C)OC(CCCCCCC)OCCCCCCN(C)CCN(C)CCN(C)CCCCCCOC(CCCCCCC)O[Si](C)(C)O[Si](C)(C)OCCCCCCCC` (stereo not shown) [Example 83, N^1-(11-heptyl-3,13,13,15,15-pentamethyl-10,12,14,16-tetraoxa-3-aza-13,15-disilatetracosyl)-N^1,N^2-dimethyl-N^2-(6-((1-((1,1,3,3-tetramethyl-3-(octyloxy)disiloxaneyl)oxy)octyl)oxy)hexyl)ethane-1,2-diamine], the IC50 was 176 µM. Besides, the “Viability (%) at different lipid concentrations, mean” value (6.25 μM lipid) is listed as 100.51%. Also, the “Viability (%) at different lipid concentrations, mean” value (12.5 μM lipid) was 98.95%. For the same compound, where the note is “25 μM lipid”, the “Viability (%) at different lipid concentrations, mean” value is 100.30%. Besides, for the setting “50 μM lipid”, the “Viability (%) at different lipid concentrations, mean” value stood at 101.93%. The “Viability (%) at different lipid concentrations, mean” value (100 μM lipid) came to 83.41%. Where the note is “200 μM lipid”, the “Viability (%) at different lipid concentrations, mean” value is given as 41.91%. In addition, the “Viability (%) at different lipid concentrations, mean” value (400 μM lipid) is on record as 2.25%. Further, the “Viability (%) at different lipid concentrations, mean” value (800 μM lipid) was −1.25%.
